Patent US20260337162A1, “TRYPTAMINE COMPOUNDS, COMPOSITIONS, AND METHODS OF USE” (priority 2022, published 2026)
“Also recorded” adds a separate entry of the source. Where two headings read alike, the source gives them in different places.

Columns and labels:
[1] = cited from earlier work
5-HT2A receptor [2] = molecular target: T1, 5-HT2A receptor (Homo sapiens, UniProt P28223); assay: 5-HT2A receptor functional screening assay (efficacy relative to maximal 5-HT response); format: cell-based; details: for activation at 0.5 µM: 500 nM
T1 construct: expressed in transfected cells
T1 sequence (P28223 whole entry): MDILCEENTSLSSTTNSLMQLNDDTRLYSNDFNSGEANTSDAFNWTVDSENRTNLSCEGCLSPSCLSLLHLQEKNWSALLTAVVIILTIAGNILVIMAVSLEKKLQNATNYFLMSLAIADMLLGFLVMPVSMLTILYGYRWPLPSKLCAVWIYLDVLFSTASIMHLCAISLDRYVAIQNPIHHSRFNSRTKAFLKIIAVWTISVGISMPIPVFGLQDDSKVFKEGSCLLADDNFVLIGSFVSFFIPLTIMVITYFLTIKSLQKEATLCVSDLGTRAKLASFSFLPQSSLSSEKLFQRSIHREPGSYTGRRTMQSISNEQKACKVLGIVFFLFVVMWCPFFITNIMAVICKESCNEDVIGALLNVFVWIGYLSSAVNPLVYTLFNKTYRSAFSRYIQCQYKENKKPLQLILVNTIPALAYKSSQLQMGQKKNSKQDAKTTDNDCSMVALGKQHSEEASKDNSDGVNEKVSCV
Method: (§1) 5-HT2 receptor-mediated Gq stimulation [phosphoinositide hydrolysis leading to the production of inositol phosphate 1 (IP1)]-canonical signaling pathways-were measured as previously described (Canal, C. E., Cordova-Sintjago, T., Liu, Y., Kim, M. S., Morgan, D., and Booth, R. G., 2013, Molecular pharmacology and ligand docking studies reveal a single amino acid difference between mouse and human serotonin 5-HT2A receptors that impacts behavioral translation of novel 4-phenyl-2-dimethylaminotetralin ligands, J Pharmacol Exp Ther 347, 705-716; Canal, C. E., Morgan, D., Felsing, D., Kondabolu, K., Rowland, N. E., Robertson, K. L., Sakhuja, R., and Booth, R. G., 2014, A Novel Aminotetralin-Type Serotonin (5-HT)(2C) Receptor —Specific Agonist and 5-HT2A Competitive Antagonist/5-HT2B Inverse Agonist with Preclinical Efficacy for Psychoses, J Pharm Exp Ther 349, 533), for example, with a homogeneous time-resolved fluorescence (HTRF) capable microplate reader (e.g., Mithras LB 940, Berthold) using commercially-available kits employing Fluorescence Resonance Energy Transfer (FRET) technology (e.g., IP-One HTRF (Cisbio) kits). Briefly, CHO-K1 or HEK293 cells expressing a single serotonergic 5-HT2 receptor subtype were incubated with test compounds and 5-HT or DOI (positive control) in stimulation buffer containing LiCl. After equilibration, the reaction was terminated with the donor and acceptor fluorescent conjugates in lysis buffer, and FRET was measured with a microplate reader (Berthold Mithras). Data were fit to non-linear curves to calculate potencies (e.g., EC50) and efficacies (e.g., EMAX), relative to positive controls (e.g., serotonin).

[3] = molecular target: T2, human serotonin 5-HT2A receptor (Homo sapiens, UniProt P28223); assay: Radioligand ([3H]LSD) competition binding, 5-HT2A receptor; details: for competition for [3H]LSD-labeled 5-HT2A receptors / competition binding curve shape: in words; for competition for [3H]LSD-labeled 5-HT2A receptors: up to 10 μM for partial competition; for 5-HT2A receptor affinity (in words) / competition binding curve shape / Ki: [3H]LSD; for Ki: one-site fit Ki model
T2 construct: host or cells: HEK293 (ATCC CRL-1573)
T2 sequence (P28223 whole entry): as above
Method: Binding affinity (Ki) and functional potency and efficacy (EC50 and EMAX) values of the compounds were measured.
Radioligand competition binding was performed as previously described (Saraf, T. S., Felsing, D. E., Armstrong, J. L., Booth, R. G., and Canal, C. E., 2021, Evaluation of lorcaserin as an anticonvulsant in juvenile Fmr1 knockout mice, Epilepsy Res 175, 106677), with minor modifications, using human cloned 5-HT2A receptors. Plasmids encoding human serotonin 5-HT2A receptor cDNA were procured from the cDNA Resource Center. Human embryonic kidney cells (HEK293, ATCC CRL-1573) were grown in a cell incubator in 100 mm dishes with antibiotic-free Dulbecco's modified Eagle's medium containing 10% fetal bovine serum. Cells were transfected at ~85% confluency with 5-15 μg cDNA using TransIT-2020 reagent (Mirus Bio, Madison, Wisconsin). After approximately 48 hours, cell membrane was collected via centrifugation. For all experiments, serotonin (5-HT) hydrochloride was used as a positive control, and mianserin hydrochloride (10 μM) was used to define non-specific binding. Each cell membrane homogenate expressing 5-HT2A receptors was incubated at room temperature in 96-well plates with [^3H] […] Following equilibration, each sample was filtered rapidly under vacuum through fiberglass filters presoaked in a buffer and washed by vacuum several times with an ice-cold buffer. Filters were soaked with scintillation fluid and counts per minute were detected using photodetectors (Microbeta Scintillation Counter). […] Data shown are the results from all experiments combined. As is known, G protein-coupled receptors, including the 5-HT2A receptor, can exist in multiple conformations, and ligands, typically agonist ligands, have unique affinities for these conformations of the receptor (Kenakin, T. Theoretical Aspects of GPCR-Ligand Complex Pharmacology, Chem. Rev. 2017, 117, 1, 4-20). […] However, for simplicity reasons, affinity of these compounds are reported herein as fitted to the single-site model. The data point for −10 samples is total specific binding (no compound present), and −4 was interpolated to complete the binding curves to 0 specific binding.

5-HT2A receptor [4] = molecular target: T1, 5-HT2A receptor; assay: Dose-response 5-HT2A functional assay (IP1 formation); format: cell-based
Method: (§2) FIG. 27 is a graph showing the dose-response 5-HT2A functional assay results as a percent of control agonist response for compound II-2; tested in duplicate at the indicated concentrations and the EC50 values were determined by non-linear regression analysis of the concentration-response curves generated with mean replicate values using Hill equation curve fitting;
as §2, with “28” for “27”, “compounds III-2 and IV-21;” for “compound II-2;”, “fitting; and” for “fitting;”
as §1
The results from tests of 5-HT2A functional activities of this series of compounds were also unexpected in the context of the unusual results observed from competition binding assays. […] Complete dose-response 5-HT2A and 5HT2B functional assays (measuring IP1 formation) were conducted for III-2 and IV-21 by a second, independent laboratory.

in vivo = format: in vivo, adult, male C57BL/6J mice; details: 10 mg/kg PO; for concentration at 10 min / concentration at 0.5 h / concentration at 2 h: mouse, in vivo, po, 10 mg/kg; for concentration at 0.5 h: 30 min; for concentration at 2 h: 120 min
Method: PK profiles were established in adult, male C57BL/6J (Jackson Laboratories). Mice were housed in standard laboratory cages with ad libitum access to food and water, and were acclimated to the vivarium for at least one week prior to testing in a procedure room. In a typical experiment, mice were administered 10 mg/kg of test compound by oral gavage and plasma and brain samples were collected at 10, 30, and 120 min with n-3 for each time point. Quantification of the parent molecule was done using LC-MS/MS method (LLOQ, 0.9 nM).

5-HT2A receptor [5] = assay: Head-twitch response (HTR) and behavioral observation in mice; format: in vivo, adult, male C57BL/6J mice; details: 10 mg/kg PO; for HTR (per min): 30 min counting; for elicitation of HTR (in words) / qualitative behavioral changes: mice
Method: The HTR assay was performed in adult, male C57BL/6J mice, procured from the Jackson Laboratory (Bar Harbor, Maine), as previously described (Canal, C. E., and Morgan, D., 2012, Head-twitch response in rodents induced by the hallucinogen 2,5-dimethoxy-4-iodoamphetamine: a comprehensive history, a re-evaluation of mechanisms, and its utility as a model, Drug Test Anal 4, 556-576; Saraf, T. S., Felsing, D. E., Armstrong, J. L., Booth, R. G., and Canal, C. E., 2021, Evaluation of lorcaserin as an anticonvulsant in juvenile Fmr1 knockout mice, Epilepsy Res 175, 106677). Mice were housed in standard laboratory cages with ad libitum access to food and water, and were acclimated to the vivarium for at least one week prior to testing in a procedure room. On the day of testing, mice were acclimated to the procedure room in their home cages for ≥60 min before administration of test compounds. Test articles were administered at 10 mg/kg by oral gavage and mice were placed immediately thereafter in a clear, polycarbonate box (46×20×20 cm), and HTRs were counted for 30 consecutive minutes, using hand-held tally counters, by two trained observers who were blind to treatment.

[6] = brain, read-out: PK data, Brain, 10 min
[7] = brain, read-out: PK data, Brain, 30 min
[8] = brain, read-out: PK data, Brain, 120 min
[9] = plasma, read-out: PK data, Plasma, 10 min
[10] = plasma, read-out: PK data, Plasma, 30 min
[11] = plasma, read-out: PK data, Plasma, 120 min

## CN(C)CCc1c[nH]c2cccc(O)c12 [psilocin]
[1]; in vivo
  MAO-mediated metabolism: undergo MAO-mediated metabolism in vivo

## CN(C)CCc1c[nH]c2cccc(OP(=O)(O)O)c12 [Psilocybin, psilocybin]
[1]; in vivo
  MAO-mediated metabolism: undergo MAO-mediated metabolism in vivo

## CN(CCc1c[nH]c2cccc(O)c12)CC(F)F [III-12, 3-(2-((2,2-difluoroethyl)(methyl)amino)ethyl)-1H-indol-4-ol]
5-HT2A receptor [2]
  activation at 0.5 µM: 17.8%
  activation at 50 µM: > 50%

## FC1(F)CCN(CCc2c[nH]c3ccccc23)CC1 [II-21, 3-(2-(4,4-difluoropiperidin-1-yl)ethyl)-1H-indole]
5-HT2A receptor [2]
  activation at 0.5 µM: 9.2%
  activation at 50 µM: -25.4%

## FC(F)(F)CN(CCc1c[nH]c2ccccc12)CC(F)(F)F [II-10, N-(2-(1H-indol-3-yl)ethyl)-2,2,2-trifluoro-N-(2,2,2-trifluoroethyl) ethan-1-amine]
[3]
  competition for [3H]LSD-labeled 5-HT2A receptors: only partial competition

## CN(C)CCc1c[nH]c2ccccc12 [DMT, N,N-dimethyltryptamine]
[1]; in vivo, po
  oral activity / oral bioavailability: not orally active
[1]; in vivo
  duration of action: 5 to 15 min

## COc1ccc2[nH]cc(CCN(C)C)c2c1 [Compound 5-MeO-DMT, 5-methoxy-N,N-dimethyltryptamine]
[1]; in vivo
  duration of action: 5 to 15 min
[1]; oral
  oral activity / oral bioavailability: lacks oral bioavailability

## FC(F)CCN(CCc1c[nH]c2ccccc12)CCC(F)F [II-2, N-(2-(1H-indol-3-yl)ethyl)-N-(3,3-difluoropropyl)-3,3-difluoropropan-1-amine]
5-HT2A receptor [2]
  activation at 0.5 µM: 1.4%
5-HT2A receptor [4]; IP1 formation
  EC50: 596 nM
5-HT2A receptor [4]; percent of control agonist response
  Emax: 79%

## FC(F)(F)CCN(CCc1c[nH]c2ccccc12)CCC(F)(F)F [II-3, N-(2-(1H-indol-3-yl)ethyl)-3,3,3-trifluoro-N-(3,3,3-trifluoropropyl) propan-1-amine]
5-HT2A receptor [2]
  activation at 0.5 µM: -29.7%
  activation at 50 µM: > 50%

## CN(CCc1c[nH]c2ccccc12)CCC(F)(F)F [II-6, N-(2-(1H-indol-3-yl)ethyl)-3,3,3-trifluoro-N-methylpropan-1-amine]
In vivo; mice
  brain penetration (in words): brain-penetrant
In vivo; [6]
  concentration at 10 min: 1550 to 12600 nM
In vivo; [7]
  concentration at 0.5 h: 720 to 4710 nM
In vivo; [8]
  concentration at 2 h: 21 to 1130 nM
In vivo; [9]
  concentration at 10 min: 820 to 7760 nM
In vivo; [10]
  concentration at 0.5 h: 390 to 3140 nM
In vivo; [11]
  concentration at 2 h: 7 to 440 nM
5-HT2A receptor [2]
  activation at 0.5 µM: -7.7 ± 11.6%
  activation at 50 µM: -3.1 ± 9.6%
5-HT2A receptor [5]
  HTR (per min): <1 per min
  elicitation of HTR (in words): did not elicit a HTR
  qualitative behavioral changes: reduced locomotion and “hiccup” responses
[3]
  5-HT2A receptor affinity (in words): high affinities
  competition binding curve shape: multiple slopes
  Ki: 12 nM
  competition for [3H]LSD-labeled 5-HT2A receptors: complete competition

## Oc1cccc2[nH]cc(CCN(CCC(F)(F)F)CCC(F)(F)F)c12 [III-3, 3-(2-(bis(3,3,3-trifluoropropyl)amino)ethyl)-1H-indol-4-ol]
5-HT2A receptor [2]
  activation at 0.5 µM: 29.2%
  activation at 50 µM: > 50%

## CN(CCc1c[nH]c2cccc(O)c12)CCC(F)(F)F [III-6, 3-(2-(methyl (3,3,3-trifluoropropyl)amino)ethyl)-1H-indol-4-ol]
In vivo; [6]
  concentration at 10 min: 200 to 1300 nM
In vivo; [7]
  concentration at 0.5 h: 120 to 420 nM
In vivo; [8]
  concentration at 2 h: 3 to 20 nM
In vivo; [9]
  concentration at 10 min: 170 to 620 nM
In vivo; [10]
  concentration at 0.5 h: 72 to 180 nM
In vivo; [11]
  concentration at 2 h: 2 to 16 nM
5-HT2A receptor [2]
  activation at 0.5 µM: 53.5%
  activation at 50 µM: > 50%
5-HT2A receptor [2]; in vitro screening, II-15: both 500 nM and 50 μM
  5-HT2A functional activity (in words): agonist activity; also recorded: behaved as an agonist
5-HT2A receptor [5]
  HTR (per min): <1 per min
  elicitation of HTR (in words): did not elicit a HTR; also recorded: did not elicit the 5-HT2A-dependent HTR
  qualitative behavioral changes: reduced locomotion and “hiccup” responses; also recorded: “hiccup” like responses and caused hypolocomotion
[3]
  5-HT2A receptor affinity (in words): high affinities; also recorded: potent affinity
  competition binding curve shape: multiple slopes
  Ki: 12 nM
  competition for [3H]LSD-labeled 5-HT2A receptors: complete competition

## CN(CCc1c[nH]c2ccccc12)CC(F)F [II-12, N-(2-(1H-indol-3-yl)ethyl)-2,2-difluoro-N-methylethan-1-amine]
5-HT2A receptor [2]
  activation at 0.5 µM: 19.9%
  activation at 50 µM: 30.3%

## CN(C)CCc1c[nH]c2ccc(SC(F)(F)F)cc12 [Compound I-3, N,N-dimethyl-2-(5-((trifluoromethyl)thio)-1H-indol-3-yl) ethan-1-amine]
5-HT2A receptor [2]
  activation at 0.5 µM: -34.2%
  activation at 50 µM: 43.9%
